# Measured values published in patent US7265152B2 (ViroPharma Incorporated, priority 2002, dated 2007).
# Read-outs that look alike come from different tables or passages of the source.
# Key:
# [1] = tested on: HCV replicon (BB7 sequence) in Huh-7-Clone A cells; experiment: HCV replicon assay: ELISA of NS5A protein in replicon-containing cells (Inhibition of Viral RNA Replication); assay type: cell-based; conditions: Hepatitis C virus
# In short: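 Huh-7-Clone A cells carrying subgenomic BB7 HCV replicon (G418-selectable) incubated 72 h with compound. NS5A protein quantified by cell ELISA: glutaraldehyde fixation, anti-NS5A monoclonal plus HRP secondary, TMB read at OD 650 nm. EC50 derived from 8-point serial dilution dose curve.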
# HCV NS5B = target: T1, HCV NS5B (Hepatitis C virus genotype 1b, UniProt Q9WMX2); experiment: Inhibition of viral RNA-dependent RNA polymerase (RdRp), in vitro biochemical assay; parameters: species or system HCV genotype 1b virus (BB7); conditions: HCV NS5B RdRp, read-out: HCV pol-BB7 IC50
# T1 construct: fusion protein, of which the carboxyl terminal 21 amino acids were removed to enhance its solubility; His tag (GSHHHHHH); made in house; host or cells: E. coli
# In short: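 Purified recombinant NS5B from a genotype 1b consensus (BB7), His-tagged, E. coli-expressed, with the C-terminal 21 residues deleted. Inhibition of RdRp activity in vitro was measured, and IC50 is the concentration giving 50% inhibition.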
# [2] = HCV replicon assay, ranges of EC50, read-out: Replicon
# [3] = ranges of EC50 in HCV replicon assay, read-out: Replicon
SMILES,"EC50 [1, 2]","IC50 (HCV NS5B; BB7, class symbols A-D)",other results
"CNC(=O)c1c(-c2ccc(F)cc2)oc2cc(-c3cc(COC(C)C)on3)c(OC)cc12 [Example 372, 2-(4-Fluoro-phenyl)-6-(5-isopropoxymethyl-isoxazol-3-yl)-5-methoxy-benzofuran-3-carboxylic acid methylamide]",< 1 µM,,"IC50 (HCV NS5B; BB7, activity class): ≤ 500 nM"
"CNC(=O)c1c(-c2ccc(F)cc2)oc2cc(C(C)=O)c(O)cc12 [Example 276, 6-Acetyl-2-(4-fluoro-phenyl)-5-hydroxy-benzofuran-3-carboxylic acid methylamide]",< 10 µM,500 to 5000 nM,
CCN(c1cc2oc(-c3ccc(F)cc3)c(C(=O)NC)c2cc1OCc1ccc2c(c1)C(=O)OC(C)(C)O2)S(C)(=O)=O [Example 294],,≤ 500 nM,EC50 ([1]; read-out: Replicon (μM)): < 1 µM
"CNC(=O)c1c(-c2ccc(F)cc2)oc2cc(N(CC3CC3)S(C)(=O)=O)c(OC)cc12 [Example 330, 6-(Cyclopropylmethyl-methanesulfonyl-amino)-2-(4-fluoro-phenyl)-5-methoxy-benzofuran-3-carboxylic acid methylamide]",< 1 µM,≤ 500 nM,
"CNC(=O)c1c(-c2ccc(F)cc2)oc2cc(C(C)=O)c(C)cc12 [Example 301, 6-Acetyl-2-(4-fluoro-phenyl)-5-methyl-benzofuran-3-carboxylic acid methylamide]",< 10 µM,≤ 500 nM,
"CCC(C)(O)COc1cc2c(C(=O)NC)c(-c3ccc(F)cc3)oc2cc1N1CCOCC1 (stereo not drawn) [Example 251, 2-(4-Fluoro-phenyl)-5-(2-hydroxy-2-methyl-butoxy)-6-morpholin-4-yl-benzofuran-3-carboxylic acid methylamide]",< 10 µM,500 to 5000 nM,
"CNC(=O)c1c(-c2ccc(F)cc2)oc2cc(N(Cc3nc(C(=O)O)cs3)S(C)(=O)=O)c(OC(C)C)cc12 [Example 292, 2-({[2-(4-Fluoro-phenyl)-5-isopropoxy-3-methylcarbamoyl-benzofuran-6-yl]-methanesulfonyl-amino}-methyl)-thiazole-4-carboxylic acid]",> 100 µM,≤ 500 nM,
"CNC(=O)c1c(-c2ccc(F)cc2)oc2cc(N(C)S(C)(=O)=O)c(OCc3ccc(C#N)cc3)cc12 [Example 357, 5-(4-Cyano-benzyloxy)-2-(4-fluoro-phenyl)-6-(methanesulfonyl-methyl-amino)-benzofuran-3-carboxylic acid methylamide]",< 1 µM,,"IC50 (HCV NS5B; BB7, activity class): ≤ 500 nM"
"CNC(=O)c1c(-c2ccc(F)cc2)oc2cc(N(C)CCOC)c(OC(C)C)cc12 [Example 119, 2-(4-Fluoro-phenyl)-5-isopropoxy-6-[(2-methoxy-ethyl)-methyl-amino]-benzofuran-3-carboxylic acid methylamide]",,,"EC50 [1, 3]: < 1 µM; IC50 (HCV NS5B; BB7 genotype 1b): ≤ 500 nM"
"CNC(=O)c1c(-c2ccc(F)cc2)oc2cc(N3CCC(F)CC3)c(OC(C)C)cc12 [Example 171, 2-(4-Fluoro-phenyl)-6-(4-fluoro-piperidin-1-yl)-5-isopropoxy-benzofuran-3-carboxylic acid methylamide]",,,"EC50 [1, 3]: < 1 µM; IC50 (HCV NS5B; BB7 genotype 1b): 500 to 5000 nM"
"CCOCc1cc(-c2cc3oc(-c4ccc(F)cc4)c(C(=O)NC)c3cc2OC)no1 [Example 350, 6-(5-Ethoxymethyl-isoxazol-3-yl)-2-(4-fluoro-phenyl)-5-methoxy-benzofuran-3-carboxylic acid methylamide]",< 1 µM,,"IC50 (HCV NS5B; BB7, activity class): ≤ 500 nM"
"CNC(=O)c1c(-c2ccc(F)cc2)oc2cc(N(Cc3nnnn3C)S(C)(=O)=O)c(OC(C)C)cc12 [Example 269, 2-(4-Fluoro-phenyl)-5-isopropoxy-6-[methanesulfonyl-(1-methyl-1H-tetrazol-5-ylmethyl)-amino]-benzofuran-3-carboxylic acid methylamide]",< 1 µM,≤ 500 nM,
